What was measured:
NFκB = experiment: Western blot of nuclear NFκB levels in THP-1 macrophages; format: cell-based, human
Method: A, THP-1 macrophages were treated with 25HC3S or 25HC for 24 hrs followed by addition or no addition of TNFα for another 3 hrs. The nuclear NFκB levels were analyzed by Western blot. The data represent one typical result out of three experiments.
Fifty μg of total cell lysates or nuclear protein extracts, otherwise as indicated, were separated on 10% SDS-PAGE gels and transferred onto a polyvinylidene difluoride membrane as described previously [31]. Membranes were blocked in TBS containing 5% of nonfat dried milk for 1 hr. The specific proteins were determined by incubation with specific antibodies against human PPAR or IκB overnight at 4° C. with shaking. After washing, the membrane was incubated in a 1:3,000 dilution of a secondary antibody (goat anti-rabbit or anti-mouse IgG-HP conjugate; Bio-Rad, Hercules, Calif.) at room temperature for 1 hr in the washing buffer (Tris buffered solution containing 0.5% Tween 20). The protein bands were visualized using Western Lightening Chemiluminescence Reagent (Perkin-Elmer, Waltham, Mass.). The expression levels were normalized to Lamin.

HMG CoA reductase mRNA [1] = experiment: HMG CoA reductase mRNA by real-time RT-PCR in HepG2 cells; format: cell-based, human; details: for inhibition of HMG CoA reductase mRNA: HepG2, lipid-depleted serum media
Method: HepG2 cells were grown in MEM containing non-essential amino acids, 0.03M NaHCO3, 10% FBS, 1 mM L-glutamine, 1 mM sodium pyruvate and 1% Pen/Strep and incubated at 37° C. in 5% CO2. When cells reached at ˜90% confluency, the oxysterols in DMSO or in ethanol (final concentration, 0.1%) and/or [1-^14C]acetate for cholesterol synthesis was added or otherwise as indicated. Microsomal and cytosol fractions were isolated from broken cells as described previously (10).
(§1) Total RNA was isolated from HepG2 cells using SV Total RNA Isolation Kit (Promega). Two μg of total RNA was used for first-strand cDNA synthesis as recommended by manufacture (Invitrogen). Real-time PCR was performed using SYBR Green on ABI 7500 Fast Real-Time PCR System (Applied Biosystems). The final reaction mixture contained 5 ng of cDNA, 100 nM of each primer, 10 μl of 2×SYBR® Green PCR Master Mix (Applied Biosystems), and RNase-free water to complete the reaction mixture volume to 20 μl. All reactions were performed in triplicate. The PCR was carried out for 40 cycles at 95° C. for 15 s and 60° C. for 1 min. The fluorescence was read during the reaction, allowing a continuous monitoring of the amount of PCR product. The data was normalized to internal control-β-actin or GAPDH mRNA. The sequences of primers for HMG CoA reductase used in real-time PCR are […] (SEQ ID NO: 1) (Forward) and […] (SEQ ID NO: 2) (Reverse).

SREBP-2 = experiment: Western blot of SREBP-2 activation in HepG2 cells; format: cell-based, human
Method: Western blot analysis of SREBPs activation following 25HC3S or 25HC treatment in HepG2 cells. Total proteins were extracted from HepG2 cells treated with 25HC in ethanol (0.1%) (FIGS. 18A and 18C) or 25HC3S in DMSO (0.1%) (FIGS. 18B and 18D), cultured in the media in absence (FIGS. 18A and 18B) or presence (FIGS. 18C and 18D) of mevinolin (50 mM) and mevalonate (0.5 mM). SREBP-1 and SREBP-2 protein levels in the cells were determined by Western blot analysis. The extracted protein (100 μg) was loaded onto each lane for each condition as indicated. The data represent a typical result from one of three independent experiments.
Microsomal proteins (80 μg) were separated on a 7.5% SDS-polyacrylamide denaturing gel according to the method of Laemmli (14). Following SDS-PAGE (Hoefer Vertical Slab Gel Unit; Heofer, San Francisco, Calif.), proteins were electrophoretically transferred overnight (4° C.) to Immobilon-P membranes using a Hoefer Trans Blot Electrophoretic Transfer cell. The membranes were then blocked for 90 minutes (25° C.) in blocking buffer (PBS, pH 7.4, 0.1% Tween, 5% non-fat dry milk). Proteins were then incubated for 90 minutes (25° C.) or overnight (4° C.) with a rabbit polyclonal IgG (1:2500-1:20,000) against human SREBP-1, SREBP-2, or HMG CoA reductase. […] Protein bands were detected using the Amersham ECL plus Kit.

SREBP-1 = experiment: Western blot of SREBP-1 activation in HepG2 cells; format: cell-based, human; details: for mature forms of SREBP-1: HepG2, dose dependent
Method: FIGS. 18A-18D. Western blot analysis of SREBPs activation following 25HC3S or 25HC treatment in HepG2 cells. […] SREBP-1 and SREBP-2 protein levels in the cells were determined by Western blot analysis. The extracted protein (100 μg) was loaded onto each lane for each condition as indicated. The data represent a typical result from one of three independent experiments. The trends of the protein levels are highly reproducible.
Microsomal proteins (80 μg) were separated on a 7.5% SDS-polyacrylamide denaturing gel according to the method of Laemmli (14). Following SDS-PAGE (Hoefer Vertical Slab Gel Unit; Heofer, San Francisco, Calif.), proteins were electrophoretically transferred overnight (4° C.) to Immobilon-P membranes using a Hoefer Trans Blot Electrophoretic Transfer cell. The membranes were then blocked for 90 minutes (25° C.) in blocking buffer (PBS, pH 7.4, 0.1% Tween, 5% non-fat dry milk). Proteins were then incubated for 90 minutes (25° C.) or overnight (4° C.) with a rabbit polyclonal IgG (1:2500-1:20,000) against human SREBP-1, SREBP-2, or HMG CoA reductase. After washing, a secondary antibody (goat anti-rabbit IgG-Horse-radish peroxidase conjugate, 1:2500) was added to the blocking solution (25° C., 90 minutes). Protein bands were detected using the Amersham ECL plus Kit.

IL-1β and TNFα release = experiment: ELISA analysis of LPS-induced cytokine releases from macrophages; format: cell-based, human; details: LPS 1 μg/ml, 24 hrs; for LPS-induced IL-1β release: concentration-dependent
Method: A total of 1×10^6 macrophages were treated with LPS (1 μg/ml) and/or different concentrations of 25HC or 25HC3S for 24 hrs. Supernatants were harvested and cytokines IL-1ß and TNF-α concentration were measured by enzyme-linked immunosorbent assay (ELISA) according to manufacturer's instruction (SuperArray Bioscience, Frederick Md.). SiRNA-mediated macrophage RNA interference

HMG CoA reductase mRNA [2] = experiment: HMG CoA reductase mRNA by real-time RT-PCR in primary human hepatocytes; format: cell-based; set-up: effect on levels of HMG CoA reductase mRNA: dose or concentration left out as unconfirmed; details: for inhibition of HMG CoA reductase mRNA: PHH cultured in serum-free media
Method: Primary human hepatocytes were purchased from an NIH-approved facility (Liver Tissue Procurement Distribution System, Univ. of Minnesota). Cells were obtained from a random sampling of males and females 18-69 yr of age. Experiments were performed as cells became available to corroborate findings in experiments conducted in HepG2 cells as previous described (13).
as §1

[3] = HepG2, in the presence of serum

C[C@H](CCCC(C)(C)O)[C@H]1CC[C@H]2[C@@H]3CC=C4C[C@@H](OS(=O)(=O)O)CC[C@]4(C)[C@H]3CC[C@]12C [25HC3S, 5-cholesten-3β, 25-diol 3-sulphate]
nuclear NFκB levels (NFκB; in the absence of TNFα, 24 hrs): decreased
nuclear NFκB levels (NFκB; in the presence of TNFα): failed to decrease
HMG CoA reductase mRNA (HMG CoA reductase mRNA [1]; HepG2, 10% FBS media): concentration dependent decreases
inhibition of the mRNA of HMG CoA reductase and SREBP1 (HMG CoA reductase mRNA [1]; HepG2, at 12 μM): 85%
inhibition of HMG CoA reductase (HMG CoA reductase mRNA [1]; [3]): 70%
inhibition of HMG CoA reductase mRNA (HMG CoA reductase mRNA [1]): still strongly inhibits
mature form of SREBP-2 (SREBP-2): only slightly decreased
mature forms of SREBP-1 (SREBP-1): decreases
inhibition of SREBP-1 activation (SREBP-1; HepG2, media containing 50 μM of mevinolin and 0.5 μM of mevalonate): more potent inhibition on SREBP-1 activation than 25HC
LPS-induced release of TNFα (IL-1β and TNFα release): represses
LPS-induced IL-1β release (IL-1β and TNFα release): significantly decreased
inhibition of HMG CoA reductase mRNA (HMG CoA reductase mRNA [2]): 75%

C[C@H](CCCC(C)(C)O)[C@H]1CC[C@H]2[C@@H]3CC=C4C[C@@H](O)CC[C@]4(C)[C@H]3CC[C@]12C [25HC, 25-hydroxycholesterol, reference compound]
nuclear NFκB levels (NFκB; in the absence of TNFα, 24 hrs): increased
nuclear NFκB levels (NFκB; in the presence of TNFα): significantly increased
inhibition of the mRNA of HMG CoA reductase and SREBP1 (HMG CoA reductase mRNA [1]; HepG2, at 3 μM): 85%
inhibition of HMG CoA reductase (HMG CoA reductase mRNA [1]; [3]): 70%
inhibition of HMG CoA reductase mRNA (HMG CoA reductase mRNA [1]): more potent inhibition than 25HC3S
inhibition of HMG CoA reductase (HMG CoA reductase mRNA [1]; HepG2, lipids depleted serum): 90%
mature form of SREBP-2 (SREBP-2): only slightly decreased
mature forms of SREBP-1 (SREBP-1): decreases
LPS-induced IL-1β release (IL-1β and TNFα release): increased
inhibition of HMG CoA reductase mRNA (HMG CoA reductase mRNA [2]): 15%
effect on levels of HMG CoA reductase mRNA (HMG CoA reductase mRNA [2]; PHH, serum-free media): ~15%

From patent US11384115B2, “Nuclear sulfated oxysterol, potent regulator of lipid homeostasis, for therapy of hypercholesterolemia, hypertriglycerides, fatty liver diseases, and atherosclerosis” (Virginia Commonwealth University, priority 2004, dated 2022)
